The target of this test is T1, ACE (angiotensin converting enzyme) (アンジオテンシン変換酵素) (Oryctolagus cuniculus, UniProt P12822).
T1 construct: 0.3U/ml ACE(ウサギ肺由来、シグマ製); purchased Sigma (シグマ); host or cells: rabbit lung tissue
T1 sequence (P12822 34-1310): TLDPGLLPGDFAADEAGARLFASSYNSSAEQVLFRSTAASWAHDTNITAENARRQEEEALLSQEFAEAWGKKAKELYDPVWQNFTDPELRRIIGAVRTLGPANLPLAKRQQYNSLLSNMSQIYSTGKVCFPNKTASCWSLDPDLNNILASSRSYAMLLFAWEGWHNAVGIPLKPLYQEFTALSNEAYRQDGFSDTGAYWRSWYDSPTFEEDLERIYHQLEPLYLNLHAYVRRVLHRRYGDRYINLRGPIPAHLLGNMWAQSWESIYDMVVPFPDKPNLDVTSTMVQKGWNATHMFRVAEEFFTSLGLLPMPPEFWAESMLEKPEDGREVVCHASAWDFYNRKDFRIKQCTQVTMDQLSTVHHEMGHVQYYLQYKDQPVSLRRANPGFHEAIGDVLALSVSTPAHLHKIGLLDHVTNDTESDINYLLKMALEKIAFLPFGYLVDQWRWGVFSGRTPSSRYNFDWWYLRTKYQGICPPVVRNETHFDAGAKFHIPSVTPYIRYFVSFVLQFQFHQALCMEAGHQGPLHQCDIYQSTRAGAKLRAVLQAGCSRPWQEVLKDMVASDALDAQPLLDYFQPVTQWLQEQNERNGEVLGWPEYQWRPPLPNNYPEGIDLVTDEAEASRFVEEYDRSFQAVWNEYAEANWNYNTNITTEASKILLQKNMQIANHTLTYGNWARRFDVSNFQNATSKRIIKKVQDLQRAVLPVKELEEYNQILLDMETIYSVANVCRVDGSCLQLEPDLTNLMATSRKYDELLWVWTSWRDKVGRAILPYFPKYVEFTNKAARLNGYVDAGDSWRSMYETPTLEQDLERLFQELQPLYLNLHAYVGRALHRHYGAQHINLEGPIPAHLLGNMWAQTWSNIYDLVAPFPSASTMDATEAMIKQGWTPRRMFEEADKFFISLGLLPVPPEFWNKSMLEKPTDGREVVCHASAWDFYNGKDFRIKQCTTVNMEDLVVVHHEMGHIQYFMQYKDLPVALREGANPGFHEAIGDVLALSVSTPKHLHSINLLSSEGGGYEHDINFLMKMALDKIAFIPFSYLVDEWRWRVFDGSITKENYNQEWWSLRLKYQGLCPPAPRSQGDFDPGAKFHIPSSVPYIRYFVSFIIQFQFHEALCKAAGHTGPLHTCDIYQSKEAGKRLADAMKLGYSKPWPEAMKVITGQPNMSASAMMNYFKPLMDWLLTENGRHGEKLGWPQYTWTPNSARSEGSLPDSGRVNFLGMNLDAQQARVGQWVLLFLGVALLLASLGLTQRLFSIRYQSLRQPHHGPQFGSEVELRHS
Description: ACE inhibitory activity (modified Cushman method, Hippuryl-His-Leu substrate). It is filed as biochemical, rabbit.

For Tyr−Thr, the ACE inhibitory activity entry (chemically synthesised peptide, compared with known soybean-derived ACE inhibitory peptides (Table 1, not visible), ACE from rabbit lung, 37 °C, 30 min, pH 8.3) is reported as “既知のペプチドと比較して充分に強い活性を有している” and the ACE inhibitory activity entry (chromatographic fractions during isolation from composition 1 (組成物1)) is on record as “矢印で示したピークにのみ活性が見られた”.

Source of the values: patent JP2013241470A, “ペプチド含有組成物” (Kikkoman Corp, priority 2013, dated 2013).
